Data set [1] concerns NC/Nga mice atopic dermatitis model. Description: NC/Nga mouse model of atopic dermatitis. It is filed as in vivo. Conditions: for dermatitis scores compared to vehicle control / TEWL (transepidermal water loss) compared to vehicle control: topical once daily Day 0-13; for TEWL (transepidermal water loss) compared to vehicle control: day 14; for mean body weight versus Vehicle group: any day during the treatment period. Here is the method:
NC/Nga mice (female) were obtained from CHARLES RIVER LABORATORIES JAPAN INC. Mice were randomized into […] of 8 mice on Day 0 based on their body weight and dermatitis score. Eight NC/Nga mice were topically administered test compound-containing [3+2]-121A (compound 34) ointment (in a volume of 100 mg) once daily from Day 0 to Day 13, or vehicle control (hydrophilic petrolatum).
Representative test substance [3+2]-121A was formulated in hydrophilic petrolatum at low (100 uM) and high (500 uM) dosages (referred to in the study as [3+2]-121A and [3+2]-121B, respectively). 7-week-old female NC/Nga mice were used. The first induction of atopic dermatitis was performed three weeks before compound administration, for which the mice were shaved of hair on their backs and behind the ears with a clipper and a shaver. Then the mice had their hair removed completely with a depilatory agent (Epilat™, Kracie Home Products, Ltd.) before 100 mg of Biostir AD® ointment was applied to the shaved dorsal skin and both surfaces of each ear evenly with a plastic spoon. The second induction of atopic dermatitis was performed subsequently. The mice were shaved of hair on their backs and behind the ears, then 150 μl of 4% sodium lauryl sulfate solution was applied to the back and behind the ears with a plastic spoon. After this, it was dried with a hair dryer (cold air) and then left to dry naturally for about 1 to 2 hours. 100 mg of Biostir AD® ointment was applied to the shaved dorsal skin and both surfaces of each ear evenly with a plastic spoon. This procedure was repeated twice a week for three weeks. Twenty-four atopic dermatitis model mice were sorted into 3 groups of 8 mice based on their body weight and dermatitis severity score on the morning at Day 0. Vehicle control (hydrophilic petrolatum), [3+2]-121A or [3+2]-121B was administered topically in a volume of 100 mg once daily from Day 0 to Day 13. Body weight and food consumption were measured once a week at Day 0, 7 and 14. The severity of dermatitis was evaluated at Day 0, 3, 7, 10 and 14. The development of 1) erythema/hemorrhage, 2) scarring/dryness, 3) edema, 4) excoriation/erosion were scored as 0 (none), 1 (mild), 2 (moderate) and 3 (severe). The sum of the individual scores was taken as the dermatitis score. The TEWL was evaluated at Day 0 and at Day 14 after administration. Histological analyses were performed on lower neck dorsal skin and auricle that were fixed in 10% neutral formalin, embedded in paraffin and sectioned at 3-4 μm sections and stained with hematoxylin-eosin using Carrazzi's hematoxylin solution. For analysis of the skin area, bright field images of HE-stained sections were randomly captured using a digital camera (DS-Fi3; Nikon) at 2 and 4-fold magnification. Statistical analyses were performed using Prism Software 6 (GraphPad Software, USA). Statistical analyses were performed using Dunnett's Comparison Test. Comparisons were made between the following groups; Group 1 (Vehicle) vs. Group 2 ([3+2]-121A) and Group 3 ([3+2]-121B). P values <0.05 were considered statistically significant. Results were expressed as mean±SD.

Data set [2] relates to bleomycin induced model of IPF in mice. As to the kind of experiment: Bleomycin induced mouse model of idiopathic pulmonary fibrosis. It is filed as in vivo. Conditions: for overall survival and Ashcroft scoring versus historical control data for pirfenidone and nintedanib: from day 7 after bleomycin for 2 weeks; for extracellular collagen deposition (Masson's trichrome blue staining) compared to bleomycin saline treated historical control / survival: all treatment groups; for survival: to day 21; for Ashcroft score / Left lung weight / Post-caval lobe weight / Body weight: n = 3, mean +/− SD; for Body weight: day of sacrifice. From the text: Bleomycin induced model of IPF.
Results. […] FIGS. 8A-8E are as follows: historical bleomycin saline treated control (8A, “ID:103”); [3+2]-120A low dose (8B, “ID:102”); [3+2]-120A high dose (8C, “ID:201”); [[3+2]-120B low dose (8D, ID:302”); and [3+2]-120B high dose (8E, ID:401”).

Data set [3] relates to STAM mouse model of NASH-HCC. Description: STAM mouse model of NASH-HCC. It is filed as in vivo, mice. The settings on record: after 4 weeks of treatment, vehicle 5 out of 8. Here is the method: In the vehicle control treated group only 5 out of 8 mice survived, whereas in the 3+2]-120A at 100 mg/kg/day (A-low) and 400 mg/kg/day (A-high), 7 out of 8 and 8 out of 8 mice survived respectively.

Data set [4] has as its system patients with HCV cirrhosis. Conditions: intravenous, cited from earlier work.
The test system of data set [5] is memory CD4+ T-cells in SIVmac251-infected RMs. Conditions: ART-suppressed SIVmac251-infected RMs; cited from earlier work.
Another data set addresses T1, β-catenin binding to CBP (Homo sapiens, UniProt Q92793).
T1 construct: endogenous in cells; host or cells: SW480 colorectal cancer cells
As to the kind of experiment: Co-immunoprecipitation assay in SW480 cells, CBP IP. Conditions: 10 μM. It is filed as cell-based. Here is the method: (§1) FIG. 4A and FIG. 4B, show, according to further non-limiting aspects of the present invention, a co-immunoprecipitation assay that was performed in SW480 cells as previously described (Emami K. et al. PNAS USA, 2004 Aug. 24; 101 (34): 12682-7) to further confirm that the positive control compound ICG-001 and [3+2]-117 selectively disrupt β-catenin binding to CBP (FIG. 4A), while enhancing the binding of β-catenin to p300 (FIG. 4B). Immunoprecipitation of β-catenin with CBP was inhibited by ICG-001 at 10 μM ([…]) and by [3+2]-117 at 500 nM. […] Quantification of the immunoblotting data based upon pixelation is shown below the immunoblots.

The subject of data set [6] is β-catenin binding to p300. Description: Co-immunoprecipitation assay in SW480 cells, p300 IP. It is filed as cell-based. As to the method: as §1
[7] abbreviates: both dosage groups (100 and 400 mg/kg/day p.o.).
The mark [8] stands for this setting: high dosage group (400 mg/kg/day p.o.).

The values that follow come from patent US11655253B2, “CBP/catenin signaling pathway inhibitors and uses thereof” (3+2 Pharma, LLC, priority 2020, dated 2023).

Structures are written as SMILES. Entries after “also recorded” stand apart in the source; their conditions may differ.

T1 sequence (Q92793 whole entry): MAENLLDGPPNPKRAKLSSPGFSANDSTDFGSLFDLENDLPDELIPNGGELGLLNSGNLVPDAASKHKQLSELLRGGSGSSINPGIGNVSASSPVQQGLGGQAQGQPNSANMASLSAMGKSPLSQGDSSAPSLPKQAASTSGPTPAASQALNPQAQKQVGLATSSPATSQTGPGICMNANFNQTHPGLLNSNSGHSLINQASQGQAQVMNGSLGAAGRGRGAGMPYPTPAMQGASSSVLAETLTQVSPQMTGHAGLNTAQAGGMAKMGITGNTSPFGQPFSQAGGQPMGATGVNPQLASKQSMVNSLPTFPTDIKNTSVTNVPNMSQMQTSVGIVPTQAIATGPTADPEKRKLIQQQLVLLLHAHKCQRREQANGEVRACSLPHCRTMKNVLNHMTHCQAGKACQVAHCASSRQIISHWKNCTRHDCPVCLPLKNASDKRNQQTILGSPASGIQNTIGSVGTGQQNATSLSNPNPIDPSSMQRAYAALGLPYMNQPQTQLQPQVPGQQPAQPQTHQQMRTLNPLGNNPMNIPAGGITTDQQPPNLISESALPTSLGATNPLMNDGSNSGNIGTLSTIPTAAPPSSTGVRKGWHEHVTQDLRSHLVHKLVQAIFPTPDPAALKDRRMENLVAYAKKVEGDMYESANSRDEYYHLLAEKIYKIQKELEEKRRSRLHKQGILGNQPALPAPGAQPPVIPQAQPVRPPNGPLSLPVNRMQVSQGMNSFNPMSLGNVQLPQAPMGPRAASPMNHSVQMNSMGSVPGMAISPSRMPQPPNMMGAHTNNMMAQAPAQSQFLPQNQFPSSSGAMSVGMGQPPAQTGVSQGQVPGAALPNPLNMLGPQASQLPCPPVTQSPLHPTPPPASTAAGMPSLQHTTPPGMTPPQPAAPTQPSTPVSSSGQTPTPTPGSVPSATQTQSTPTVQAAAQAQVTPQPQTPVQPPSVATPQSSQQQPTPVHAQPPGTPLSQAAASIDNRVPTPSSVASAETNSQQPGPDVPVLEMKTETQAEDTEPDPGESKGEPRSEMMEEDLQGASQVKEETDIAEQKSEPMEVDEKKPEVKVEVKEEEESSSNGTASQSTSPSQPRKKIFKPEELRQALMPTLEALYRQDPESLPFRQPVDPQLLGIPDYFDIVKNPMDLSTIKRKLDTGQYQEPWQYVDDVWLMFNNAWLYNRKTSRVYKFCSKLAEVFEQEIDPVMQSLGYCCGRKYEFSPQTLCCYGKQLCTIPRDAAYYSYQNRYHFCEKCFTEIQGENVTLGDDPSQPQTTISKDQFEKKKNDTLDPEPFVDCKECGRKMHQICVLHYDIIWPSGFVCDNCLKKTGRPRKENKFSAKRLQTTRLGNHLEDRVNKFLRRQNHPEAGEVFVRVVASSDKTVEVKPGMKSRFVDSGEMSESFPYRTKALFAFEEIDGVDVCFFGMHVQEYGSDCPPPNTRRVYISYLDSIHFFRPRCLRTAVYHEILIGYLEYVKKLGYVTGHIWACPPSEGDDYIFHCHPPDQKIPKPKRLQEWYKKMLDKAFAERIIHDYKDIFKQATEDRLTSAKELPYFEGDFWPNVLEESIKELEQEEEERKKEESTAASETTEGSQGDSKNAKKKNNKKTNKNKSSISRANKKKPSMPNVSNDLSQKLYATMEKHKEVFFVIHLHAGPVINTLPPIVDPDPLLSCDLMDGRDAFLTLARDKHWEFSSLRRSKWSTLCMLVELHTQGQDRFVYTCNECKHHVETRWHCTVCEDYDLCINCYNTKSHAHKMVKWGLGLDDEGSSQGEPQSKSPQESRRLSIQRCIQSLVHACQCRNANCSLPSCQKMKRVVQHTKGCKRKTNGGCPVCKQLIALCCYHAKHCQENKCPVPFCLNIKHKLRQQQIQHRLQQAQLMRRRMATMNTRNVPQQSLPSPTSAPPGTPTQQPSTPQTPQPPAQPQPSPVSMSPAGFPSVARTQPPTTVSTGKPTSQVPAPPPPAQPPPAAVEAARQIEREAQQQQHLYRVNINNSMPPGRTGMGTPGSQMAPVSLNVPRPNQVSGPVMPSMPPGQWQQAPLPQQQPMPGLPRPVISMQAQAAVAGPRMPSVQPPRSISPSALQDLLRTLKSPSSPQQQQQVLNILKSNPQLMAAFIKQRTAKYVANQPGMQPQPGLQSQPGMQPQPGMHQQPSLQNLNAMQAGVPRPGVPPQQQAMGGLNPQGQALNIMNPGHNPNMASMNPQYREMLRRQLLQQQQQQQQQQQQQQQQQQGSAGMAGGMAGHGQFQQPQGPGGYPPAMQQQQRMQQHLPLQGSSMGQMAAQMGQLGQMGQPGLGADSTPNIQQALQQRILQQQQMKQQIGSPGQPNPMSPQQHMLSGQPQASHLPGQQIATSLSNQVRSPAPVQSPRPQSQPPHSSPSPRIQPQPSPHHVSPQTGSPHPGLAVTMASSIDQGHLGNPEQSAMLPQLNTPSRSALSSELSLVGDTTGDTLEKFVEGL

On to `CCCCCCCCCCCC(=O)Oc1ccc(C[C@H]2C(=O)N(Cc3cccc4ccccc34)C[C@H]3N2C(=O)CN(Cc2cc(-c4ccccc4)no2)N3C(=O)NCc2ccccc2)cc1` [[3+2]-121A], for which, in data set [1] (high (500 uM) ointment), the “dermatitis scores compared to vehicle control” value is recorded as “significantly decreased” and the “TEWL (transepidermal water loss) compared to vehicle control” value is given as “significantly decreased”. Also, in data set [1] (low (100 uM)), the “food consumption per mouse versus Vehicle group” value is on record as “no significant differences”; the “inflammation and inflammatory cell influx (histological analysis)” value is “significant reduction”; the “mean body weight versus Vehicle group” value is recorded as “no significant differences”. In addition, in data set [1] (low (100 uM) ointment), the “dermatitis scores compared to vehicle control” value is listed as “significantly decreased” and the “TEWL (transepidermal water loss) compared to vehicle control” value is reported as “significantly decreased; also recorded: significant decrease”. Also, in data set [1] (low (100 uM), Days 10 and 14), the “dermatitis severity score on the back compared with Vehicle group” value is recorded as “significant decrease”. Besides, in data set [1] (low (100 uM), primarily on the back, Days 10 and 14), the “total dermatitis severity score compared with Vehicle control group” value was “significant decrease”.

As to `CS(=O)(=O)O.O=C1[C@H](Cc2ccc(O)cc2)N2C(=O)CN(Cc3cc(-c4ccccn4)no3)N(C(=O)NCc3ccccc3)[C@H]2CN1Cc1cccc2ncccc12` [[3+2]-120A], the “overall survival and Ashcroft scoring versus historical control data for pirfenidone and nintedanib” value in data set [2] (100 mg/kg/day p.o.) was “compared favorably”. Besides, the “overall survival and Ashcroft scoring versus historical control data for pirfenidone and nintedanib” value in data set [2] (400 mg/kg/day p.o.) is “compared favorably”. In data set [2], the “extracellular collagen deposition (Masson's trichrome blue staining) compared to bleomycin saline treated historical control” value is on record as “significant reduction” and the survival entry is “all mice survived”. Further, in data set [2] (setting [7]), the Ashcroft scores result was “significant decrease”, the lung weights result is recorded as “significant decrease” and the weight gain result is listed as “significant increase”. Moreover, in data set [2] (high dose (400 mg/kg/day p.o.)), the Ashcroft score was 2.5 +/− 2.0, the Left lung weight is 66 ± 33 mg, the Post-caval lobe weight stood at 25 ± 18 mg and the Body weight was found to be 16.9 ± 3.8 g. In data set [2] (low dose p.o.), the Ashcroft score is 2.2 +/− 1.7, the Left lung weight is 65 ± 19 mg, the Post-caval lobe weight amounted to 21 ± 9 mg and the Body weight was 18.2 ± 0.7 g. Further, the mice survived in data set [3] (100 mg/kg/day p.o. (A-low)) is on record as 7 out of 8. In addition, in data set [3] (400 mg/kg/day p.o. (A-high)), the mice survived is reported as 8 out of 8.

In the case of `C[C@H]1[C@H]2N(C(=O)CN(C)N2C(=O)NCc2ccccc2)[C@@H](Cc2ccc(OP(=O)(O)O)cc2)C(=O)N1Cc1cccc2cccnc12` [PRI-724], the safety entry in data set [4] (10 and 40 mg/m^2/day for 12 weeks (1 week on and 1 week off)) is “safe”. In data set [4] (10 and 40 mg/m^2/day for 12 weeks), the “plasma exposure of the drug” value was “dose-dependent”. Besides, in data set [4] (10 and 40 mg/m^2/day for 12 weeks, in several patients), the “liver histology and Child Pugh scores” value is given as “improvement”. Also, in data set [5], the “proliferation of T memory stem cells (SCM) and central memory T-cells (CM)” value was “decrease”.

Consider `O=C1[C@H](Cc2ccc(O)cc2)N2C(=O)CCN(C(=O)NCc3ccccc3)[C@H]2CN1Cc1cccc2ccccc12` [ICG-001], for which, at β-catenin binding to CBP, the “Immunoprecipitation of β-catenin with CBP” value is “inhibited”. Moreover, in data set [6], the “minimal interaction between β-catenin and p300” value is recorded as “not blocked”. Also, the “amount of β-catenin co-immunoprecipitated with p300” value in data set [6] (10 μM) is “slightly increases”.

On to `CCCCCCCCCCCC(=O)Oc1ccc(C[C@H]2C(=O)N(Cc3cccc4ccccc34)C[C@H]3N2C(=O)CN(Cc2cc(-c4ccccc4)no2)N3C(=O)NCc2ccccc2)cc1` [[3+2]-121B], for which, in data set [1] (high (500 uM)), the “food consumption per mouse versus Vehicle group” value is listed as “no significant differences”; the “inflammation and inflammatory cell influx (histological analysis)” value is “significant reduction”; the “mean body weight versus Vehicle group” value was “no significant differences”. In data set [1] (high (500 uM) ointment, listed as 121B), the “TEWL (transepidermal water loss) compared to vehicle control” value is “significant decrease”.

Turning to `CCOC(=O)CNC(=O)CNC(=O)Oc1ccc(C[C@H]2C(=O)N(Cc3cccc4ncccc34)C[C@H]3N2C(=O)CN(Cc2cc(-c4ccccn4)no2)N3C(=O)NCc2ccccc2)cc1` [[3+2]-120B, ethyl 2-(2-((4-(((6S,9aS)-1-(benzylcarbamoyl)-4,7-dioxo-2-((3-(pyridin-2-yl)isoxazol-5-yl)methyl)-8-(quinolin-5-ylmethyl)octahydro-1H-pyrazino[2,1-c][1,2,4]triazin-6-yl)methyl)phenoxy)carbonylamino)acetamido)acetate], the “overall survival and Ashcroft scoring versus historical control data for pirfenidone and nintedanib” value in data set [2] (400 mg/kg/day p.o.) is on record as “compared favorably”. In addition, in data set [2], the “extracellular collagen deposition (Masson's trichrome blue staining) compared to bleomycin saline treated historical control” value is “significant reduction” and the survival entry was “all mice survived”. Besides, in data set [2] (setting [8]), the Ashcroft scores result is “significant decrease”, the lung weights result is listed as “significant decrease” and the weight gain entry is given as “significant increase”. Also, in data set [2] (high dose (400 mg/kg/day p.o.)), the Ashcroft score was 2.1 +/− 0.7, the Left lung weight is 65 ± 13 mg, the Post-caval lobe weight turned out to be 21 ± 6 mg and the Body weight came to 19.5 ± 1.6 g. In addition, in data set [2] (low dose p.o.), the Ashcroft score is 3.9 +/− 1.4, the Left lung weight came to 77 ± 15 mg, the Post-caval lobe weight was 39 ± 17 mg and the Body weight turned out to be 15.1 ± 3.8 g.
